Assays:
Type in all cases: biochemical
eFabI = biological target: T1, eFabI (Escherichia coli, UniProt P0AEK4); assay: PPant ejection assay / LC-HRMS of 4-AmcB formation; settings: 1 mM NADH, 200 uM gel-filtered 3-AmcB, 8 uM enzyme, 20 mM Tris-HCl pH 8.0, 150 mM NaCl, 30 °C, 1 h
T1 construct: gene fabI; C-terminal His tag, pET26b(+), E. coli BL21(DE3)
T1 sequence (P0AEK4 2-262): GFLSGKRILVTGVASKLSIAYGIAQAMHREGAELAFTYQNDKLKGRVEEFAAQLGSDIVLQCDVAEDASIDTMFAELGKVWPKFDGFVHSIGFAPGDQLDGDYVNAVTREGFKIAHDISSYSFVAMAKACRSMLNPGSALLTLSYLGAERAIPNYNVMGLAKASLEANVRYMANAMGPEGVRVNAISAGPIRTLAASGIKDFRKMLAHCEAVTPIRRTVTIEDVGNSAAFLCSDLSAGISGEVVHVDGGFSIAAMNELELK

sFabI = biological target: T2, sFabI (Streptomyces albidoflavus, UniProt D6BBL6); assay: PPant ejection assay / LC-HRMS of 4-AmcB formation; settings: 1 mM NADH, 200 uM gel-filtered 3-AmcB, 8 uM enzyme, 20 mM Tris-HCl pH 8.0, 150 mM NaCl, 30 °C, 1 h
T2 construct: gene fabI; C-terminal His tag, pET26b(+), E. coli BL21(DE3)
T2 sequence (D6BBL6 1-259): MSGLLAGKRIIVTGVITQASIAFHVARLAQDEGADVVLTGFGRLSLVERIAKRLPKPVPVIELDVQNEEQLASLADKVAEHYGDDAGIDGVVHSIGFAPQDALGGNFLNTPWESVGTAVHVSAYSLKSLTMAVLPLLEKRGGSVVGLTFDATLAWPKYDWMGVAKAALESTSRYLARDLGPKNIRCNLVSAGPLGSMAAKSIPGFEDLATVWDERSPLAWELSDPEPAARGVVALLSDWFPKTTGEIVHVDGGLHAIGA

AmcH [1] = biological target: T3, AmcH (Streptomyces novoguineensis, UniProt A0A4Y5QVH7); assay: LC-ESI-HRMS of acyl-AmcB; settings: 200 uM AmcB, 0.2 uM AmcH, 1 mM 2-OG, 5 mM ATP, 25 mM MgCl2, 50 mM Tris-HCl pH 8.0, 30 °C, 1 h
T3 construct: AmcH purified from Streptomyces albus G153; AmcB (holo form, with phosphopantetheine arm) from E. coli BL21(DE3), pET26b(+), is the acyl acceptor; with Acyl carrier protein AmcB
T3 sequence (A0A4Y5QVH7 1-460): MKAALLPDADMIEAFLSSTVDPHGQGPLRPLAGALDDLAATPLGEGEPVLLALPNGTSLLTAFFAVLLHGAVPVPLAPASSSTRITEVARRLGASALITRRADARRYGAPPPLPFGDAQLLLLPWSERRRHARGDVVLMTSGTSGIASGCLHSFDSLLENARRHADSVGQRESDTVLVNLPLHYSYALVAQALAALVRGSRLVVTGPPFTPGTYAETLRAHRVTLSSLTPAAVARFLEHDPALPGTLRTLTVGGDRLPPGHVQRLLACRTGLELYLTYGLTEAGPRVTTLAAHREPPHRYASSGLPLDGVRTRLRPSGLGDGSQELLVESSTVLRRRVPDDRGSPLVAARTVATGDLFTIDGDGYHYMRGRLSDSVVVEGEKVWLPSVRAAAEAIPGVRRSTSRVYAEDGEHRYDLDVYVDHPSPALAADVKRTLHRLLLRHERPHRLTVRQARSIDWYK

AmcH [2] = biological target: T3, AmcH; assay: HPLC of ATP consumption and AMP formation; settings: 500 uM AmcB, 1 uM AmcH, 1 mM 2-OG, 2 mM ATP, 25 mM MgCl2, pH 8.0, 30 °C

NC(=O)C1=CN([C@@H]2O[C@H](COP(=O)(O)OP(=O)(O)OC[C@H]3O[C@@H](n4cnc5c(N)ncnc54)[C@H](O)[C@@H]3O)[C@@H](O)[C@H]2O)C=CC1 [NADH]
PPant ejection assay / LC-HRMS of 4-AmcB formation (eFabI): eFabI and sFabI specifically catalyze the reduction of 3-AmcB to yield 4-AmcB | PPant ejection assay / LC-HRMS of 4-AmcB formation (sFabI): eFabI and sFabI specifically catalyze the reduction of 3-AmcB to yield 4-AmcB

O=C(O)CCC(=O)C(=O)O [2-OG]
LC-ESI-HRMS of acyl-AmcB (AmcH [1]): AmcH loads only 2-OG onto AmcB to form 2-oxoglutaryl-AmcB

Nc1ncnc2c1ncn2[C@@H]1O[C@H](COP(=O)(O)OP(=O)(O)OP(=O)(O)O)[C@@H](O)[C@H]1O [ATP]
HPLC of ATP consumption and AMP formation (AmcH [2]): consumption of ATP and the generation of AMP occurred in both AmcB- and 2-OG-dependent manners

— article PMC10698177, “Discovery of type II polyketide synthase-like enzymes for the biosynthesis of cispentacin” (Nature Communications, 2023)
